Data reported in patent US20220023306A1, “USE OF A PPAR-DELTA AGONIST IN THE TREATMENT OF FATTY ACID OXIDATION DISORDERS (FAOD)” (Reneo Pharmaceuticals, Inc., priority 2019, published 2022).

Tests used:
rat muscle cell lines = assay: fatty acid oxidation in rat muscle cell lines; type: cell-based
[1] = test system: PPARδ regulated genes (CPT1b, PGC1α); assay: expression of PPARδ regulated genes in vivo
[2] = test system: very long-chain acyl-CoA dehydrogenase (VLCAD); assay: VLCAD enzymatic activity in cultured fibroblasts from symptomatic VLCAD-deficient FAOD patients (ETF fluorescence reduction ACAD activity assay); type: cell-based, human; conditions: cultured fibroblasts from symptomatic patients with VLCAD deficiency
Method: Subjects. Skin biopsies for fibroblast culture are performed on a clinical basis with written informed consent from subjects and/or legal guardians. Fibroblast cells with mutations in any one of the genes and/or proteins associated with a fatty acid oxidation disorder (FAOD) ae obtained from patients' skin biopsies, while wild type (WT) fibroblast cells are obtained from healthy individuals.
Fibroblast cells, in some cases, are obtained from subjects with a confirmed diagnosis of a fatty acid oxidation disorder (FAOD) (e.g. MCAD, VLCAD, CPT1, CACT, CPT2, LCHAD, and/or mitochondrial TFP deficiencies or mutations) or they, in some cases, are purchased is available from commercial sources, e.g. from the Coriell Institute for Medical Research (403 Haddon Avenue, Camden, N.J. 08103).
Cell culture and treatments. Cells are grown in Dulbecco's Modified Eagle Medium (DMEM), Corning Life Sciences, Manassas, Va., containing high glucose levels or in DMEM devoid of glucose for 48-72 hr. Both media are supplemented with fetal bovine serum, glutamine, penicillin and/or streptomycin. In some experiments, fibroblasts are incubated with N-acetylcysteine, resveratrol, mitoQ, Trolox (a hydro-soluble analogue of vitamin E), or bezafibrate, prior to the analysis of parameters.
A PPARδ agonist compound is dissolved in phosphate buffer saline, PBS, as a stock solution. […]

subjects with FAOD = assay: FAOD clinical trial with Compound 1; type: in vivo, human
Method: In some embodiments, outcome measures are assessed with tests that assess exercise tolerance. In some embodiments, exercise tolerance is assessed with exercise tests. Exercise tests include, but are not limited to, submaximal treadmill, walking tests (e.g. without limitation, 6 minute; 12 minute walks), run tests, treadmill and ergometry exercise testing. In some embodiments, exercise tests are used in combination with the Borg Scale of perceived exertion. In some embodiments, exercise tests are performed according to guidelines set forth by the American Thoracic Society (ATS).
In some embodiments, stable isotope methods are used to measure in vivo residual fatty acid oxidation capacity. Enrichment of ^13CO2 only occurs by one complete round of fatty acid oxidation. A representative protocol is as follows. A fasting blood sample is obtained after an overnight fast. Prior to breakfast, a resting indirect calorimetry is measured. Subjects are then given a meal (e.g a shake) containing 17-mg/kg ^13C-oleic acid. Breath samples are collected prior to (time 0) and again hourly at 1, 2, 3, 4, 5, 6, 7, and 8 hours following the ^13C-oleic administration. ^13C in breath samples are measured as a ratio of ^13C/^12C using the Delta Plus IRMS (Finnigan MAT, Bremen, Germany). Recovery is calculated as ^13C divided by the dose of ^13C administered. The amount of excess ^13C in breath is a measure of residual fatty acid oxidation capacity in subjects with disorders of long-chain fatty acid oxidation.
In some embodiments, improvements in fatty acid oxidation in subjects with a FAOD that are treated with a PPARδ agonist compound described herein (e.g. Compound 1, or a pharmaceutically acceptable salt thereof) are measured with a suitable ^13CO2 breath sample test. In some embodiments, a suitable ^13CO2 breath sample test comprises the steps of: 1) providing the subject a meal comprising ^13C-enriched fatty acid(s); 2) administering to the subject a PPARδ agonist compound, or a pharmaceutically acceptable salt thereof, after the consumption of the meal; and 3) collecting breath samples from the subject at regular intervals and measuring the relative amount of ^13CO2 to ^12CO2 in the breath samples. In some embodiments, the breath samples are collected about every hour. In some embodiments, the meal is enriched with a 13C labeled fatty acid, wherein the fatty acid is butyric acid, caproic acid, caprylic acid, capric acid, lauric acid, myristic acid, palmitic acid, stearic acid, arachidic acid, behenic acid, lignoceric acid, caproleic acid, lauroleic acid, myristoleic acid, palmitoleic acid, oleic acid, elaidic acid, vaccenic acid, gadoleic acid, erucic acid, brassidic acid, nervonic acid, linoleic acid, alpha-linolenic acid, gamma-linolenic acid, columbinic acid, stearidonic acid, mead acid, dihomo-γ-linolenic acid, arachidonic acid, eicosapentaenoic acid, docosapentaenoic acid, or docosahexaenoic acid.
A non-limiting example of a fatty acid oxidation disorder (FAOD) clinical trial in humans is described below. […]

Cc1cc(OC/C=C(/c2ccc(F)cc2)c2ccc(C#CCN3CCOCC3)cc2)ccc1OCC(=O)O [Compound 1, (E)-[4-[3-(4-Fluorophenyl)-3-[4-[3-(morpholin-4-yl)propynyl]phenyl]allyloxy]-2-methyl-phenoxy]acetic acid]
fatty acid oxidation (rat muscle cell lines): dose-dependent increase
expression pattern of CPT1b (fatty acid metabolism) [1]: altered the expression patterns
expression pattern of PGC1α (mitochondrial biogenesis) [1]: altered the expression patterns
VLCAD enzymatic activity [2]: increased
exercise capacity (subjects with FAOD; 50 mg once daily for 12 weeks): Improvements
exhaled 13CO2 (subjects with FAOD; 50 mg once daily for 12 weeks): trend towards increases
heart rate during the last ten minutes of exercise (subjects with FAOD; 50 mg once daily for 12 weeks): decreases
distance walked during a 12-minute walk test (subjects with FAOD; 50 mg once daily for 12 weeks, FIG. 1): increase
tolerability (subjects with FAOD; subjects that participated in the study): well tolerated
